Measurements as given in patent US4510307A, “6-Quinazolinesulfonyl derivatives and process for preparation thereof” (Asahi Kasei Kogyo Kabushiki Kaisha, priority 1980, dated 1985).

Test system: mesenteric artery
Test: Relaxation of Mesenteric Artery (isolated rabbit mesenteric artery contracted with KCl)
Conditions: Oryctolagus cuniculus, concentration for 50% relaxation, KCl 15~20 mM contraction, read-out: Relaxation of Mesenteric Artery ED50
Protocol: When, for example, 1-[4-(N-methyl-N-cyclohexylamino)-6-quinazolinesulfonyl]-4-(2-ethoxy-2-phenylethyl)piperazine was added and a complete relaxation was designated 100%, the concentration which could bring about a relaxation of 50%, i.e., ED50 was 0.8 μM.
After a home bred rabbit of a Japanese species weighing about 3 Kg was subjected to bloodletting, resulting in death and then to abdominal incision, the mesenteric artery was taken out, cut into helicoids of 2 mm×25 mm and suspended in a 20 ml organ bath filled with a Krebs-Henseleit solution into which a mixed gas of 95% by volume of O2 and 5% by volume of CO2 was introduced and one end of the artery was connected with an isometric transducer. When a load of 1.5 g was applied to the artery, the contraction and the relaxation of the artery was recorded as a weight on the transducer (a product of Nippon Koden K.K., Japan, "FD Pickup TB-912T"). The relaxation of the mesenteric artery was observed by adding the 6-quinazolinesulfonyl derivatives and their pharmaceutically acceptable acid addition salts to the mesenteric artery at the condition of about one half of the maxinum contraction with KCl at a KCl concentrantion of 15~20 mM. When the complete relaxation of the mesenteric artery was designated 100%, the concentration of the 6-quinazolinesulfonyl derivatives and their pharmaceutically acceptable acid addition salts which brought about a relaxation of 50% is shown in Table 6.

Structure (SMILES)	EC50 [µM]
CCCCCCN(CCCCCC)c1ncnc2ccc(S(=O)(=O)NCCCCN)cc12 [Compound (38), N-(4-aminobutyl)-4-dihexylamino-6-quinazolinesulfonamide]	12
CCN(CC)c1ncnc2ccc(S(=O)(=O)NCCCCN)cc12 [Compound (36), N-(4-aminobutyl)-4-diethylamino-6-quinazolinesulfonamide]	50
CC(C)OC(CN1CCN(S(=O)(=O)c2ccc3ncnc(N(C)C4CCCCC4)c3c2)CC1)c1ccccc1 (centres unmarked) [Compound (27), 1-[4-(N-methyl-N-cyclohexylamino)-6-quinazolinesulfonyl]-4-(2-isopropoxy-2-phenylethyl)piperazine]	0.9
NCCCNS(=O)(=O)c1ccc2ncnc(N3CCCCC3)c2c1 [Compound (30), N-(3-aminopropyl)-4-piperidino-6-quinazolinesulfonamide]	30
CCOC(CN1CCN(S(=O)(=O)c2ccc3ncnc(N(C)C4CCCC4)c3c2)CC1)c1ccccc1 (centres unmarked) [Compound (18), 1-[4-(N-methyl-N-cyclopentylamino)-6-quinazolinesulfonyl]-4-(2-ethoxy-2-phenylethyl)piperazine]	1.4
CCOC(CN1CCN(S(=O)(=O)c2ccc3ncnc(N(C)C4CCCCCC4)c3c2)CC1)c1ccccc1 (centres unmarked) [Compound (20), 1-[4-(N-methyl-N-cycloheptylamino)-6-quinazolinesulfonyl]-4-(2-ethoxy-2-phenylethyl)piperazine]	3.7
COC(CN1CCN(S(=O)(=O)c2ccc3ncnc(N(C)C4CCCCC4)c3c2)CC1)c1ccccc1 (centres unmarked) [Compound (26), 1-[4-(N-methyl-N-cyclohexylamino)-6-quinazolinesulfonyl]-4-(2-methoxy-2-phenylethyl)piperazine]	1.4
NCCNS(=O)(=O)c1ccc2ncnc(N3CCCCC3)c2c1 [Compound (29), N-(2-aminoethyl)-4-piperidino-6-quinazolinesulfonamide]	33
COC(CN1CCN(S(=O)(=O)c2ccc3ncnc(N4CCCCC4)c3c2)CC1)c1ccccc1 (centres unmarked) [Compound (5), 1-(4-piperidino-6-quinazolinesulfonyl)-4-(2-methoxy-2-phenylethyl)-piperazine]	5.8
CCOC(CN1CCN(S(=O)(=O)c2ccc3ncnc(N(C)C)c3c2)CC1)c1ccccc1 (centres unmarked) [Compound (2), 1-(4-dimethylamino-6-quinazolinesulfonyl)-4-(2-ethoxy-2-phenylethyl)-piperazine]	4.5
CC(C)COC(CN1CCN(S(=O)(=O)c2ccc3ncnc(N4CCCCC4)c3c2)CC1)c1ccccc1 (centres unmarked) [Compound (8), 1-(4-piperidino-6-quinazolinesulfonyl)-4-(2-isobutoxy-2-phenylethyl)-piperazine]	10.7
CC(C)COC(CN1CCN(S(=O)(=O)c2ccc3ncnc(N(C)C4CCCCC4)c3c2)CC1)c1ccccc1 (centres unmarked) [Compound (28), 1-[4-(N-methyl-N-cyclohexylamino)-6-quinazolinesulfonyl]-4-(2-isobutoxy-2-phenylethyl)piperazine]	1.3
NCCCCCCCCCCNS(=O)(=O)c1ccc2ncnc(N3CCCCC3)c2c1 [Compound (33), N-(10-aminodecyl)-4-piperidino-6-quinazolinesulfonamide]	34
CC(C)OC(CN1CCN(S(=O)(=O)c2ccc3ncnc(N4CCCCC4)c3c2)CC1)c1ccccc1 (centres unmarked) [Compound (7), 1-(4-piperidino-6-quinazolinesulfonyl)-4-(2-isopropoxy-2-phenylethyl)-piperazine]	2.2
CCOC(CN1CCN(S(=O)(=O)c2ccc3ncnc(Nc4ccccc4)c3c2)CC1)c1ccccc1 (centres unmarked) [Compound (16), 1-(4-anilino-6-quinazolinesulfonyl)-4-(2-ethoxy-2-phenylethyl)piperazine]	2.7
NCCCCNS(=O)(=O)c1ccc2ncnc(N3CCCC3)c2c1 [Compound (34), N-(4-aminobutyl)-4-(1-pyrrolidinyl)-6-quinazolinesulfonamide]	27
CN(C)c1ncnc2ccc(S(=O)(=O)NCCCCN)cc12 [Compound (35), N-(4-aminobutyl)-4-dimethylamino-6-quinazolinesulfonamide]	54
